From patent publication US20220042962A1, “METHOD FOR […] SITE-[…] WATER QUALITY […] OF RIVER BASIN” (DALIAN UNIVERSITY OF TECHNOLOGY, priority 2020, published 2022)

Test system: aquatic species in Liaohe River Basin
Test: Derivation of site-specific water quality criterion (species sensitivity distribution and toxicity sorting)

ammonia nitrogen
water quality criterion value derived by the toxicity sorting method (Liaohe River Basin, four most sensitive resident sensitive and endemic species): 15.91 mg/L
water quality criterion value derived by the species sensitivity method (Liaohe River Basin, safety coefficient 2): 13.47 mg/L
water quality criterion value (validation value) (Liaohe River Basin, weights 0.3 and 0.7, pH=7.0 and temperature=20° C.): 15.18 mg/L
X value at Y=0.05 transformed to a base-10 exponent (logistic SSD model, before division by safety coefficient 2): 26.93 mg/L
X (log10 toxicity value) at Y=0.05 on the logistic SSD fitting curve (logistic model, cumulative probability Y=0.05, pH=7.0, temperature=20° C.): 1.4302
